Experimental data reported in article PMC13053910, “Covalent Protein Inhibitors via Tyrosine and Tryptophan Conjugation with Cyclic Imine Mannich Electrophiles” (Angewandte Chemie (International Ed. in English), 2026).
Entries after “also recorded” stand apart in the source; their conditions may differ. Like-named read-outs stand apart in the source and are kept apart here.

Columns and labels:
[1] = test system: HOXA9 gene expression in THP1 cells; assay: qRT-PCR analysis of HOXA9 gene expression in THP1 cells; assay type: cell-based, Human; settings: 10 µM, 48 h
Method: Figure 7 Cellular activity of covalent, cyclic imine inhibitors to CBX8. a) qRT‐PCR analysis of HOXA9 gene expression in THP1 cells after 48 h of compound treatment at the indicated dose. N = 3. Error bars represent SD. Statistical significance was calculated using Student's t‐test. ** = p < 0.01, **** = p < 0.0001, b) qRT‐PCR analysis of HOXA9 gene expression in THP1 cells treated with increasing doses of compound for 48 h. N = 3. Error bars represent SD.
Figure S24. Cellular activity of covalent, cyclic imine inhibitors to CBX8. qRT-PCR analysis of HOXA9 gene expression in THP1 cells after 48 h of compound treatment at the indicated dose. N = 3. Error bars represent s.d. Statistical significance determined by Student’s T test. * = p <0.05, ** = p < 0.01, *** = p < 0.001, **** = p < 0.0001.
2.4 Cell Culture Cell line, Media and Culture Conditions HEK293T cells were cultured in Dubecco’s Modified Essential Media (DMEM), 10% fetal bovine serum (FBS, JR Scientific), 1% glutagro (Corning), 1% penicillin/streptomycin (Corning), 1% sodium pyruvate (Corning). Human THP1 cells were cultured in RPMI (Gibco), 10% FBS (J R Scientific), 1% Sodium pyruvate (Invitrogen), 1% Pen/Strep (Invitrogen), 1% Glutamax (Thermo Scientific), 0.1% 2-mercaptoethanol.
Cells were harvested after 48 h for RNA extraction. […] SYBR Green Mastermix (Thermo Scientific) was used for quantitative PCR. […]

CBX8 ChD Y39F = molecular target: T1, CBX8 ChD Y39F (Homo sapiens, UniProt Q9HC52, Y39F); assay: Time-dependent fluorescence polarization displacement assay, CBX8 Y39F; assay type: binding; settings: for IC50: Figure 5d, CBX8 Y39F 2 µM, probe 100 nM
T1 construct: 6His (N); TEV site (ENLYFQG), read by me from the printed insert DNA (N); host or cells: E. coli (BL21 CodonPlus RIL or Rosetta 2), pET-28a(+)
T1 sequence (Q9HC52 11-69 Y39F limits assumed): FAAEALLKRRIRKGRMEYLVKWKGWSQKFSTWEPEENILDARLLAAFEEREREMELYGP
Method: (§1) Observed masses are shown (expected average mass for CBX8 ChD = 8792 Da). The observed mass difference (913 Da) agrees with the expected mass change of 913 Da. b) Labeled protein was detected by gel shift on 16.5% Tris‐Tricine SDS‐PAGE. […] Gel analysis was conducted on a 2.5% agarose gel in 10 mM sodium borate buffer. […] Assays were conducted using SW2_113 as an FP probe (Figure S20) at 100 nM. All proteins were used at 2 µM in PBS (pH 7), 0.02% Tween 20. Error bars represent SD. […] (μM); no other compound label is printed beside the IC50 lines
2.2 Fluorescence Displacement Assay to Evaluate Time-dependent potency of Imine Covalent Inhibitors to CBX ChD. Fluorescence polarization (FP) was measured by titration of CBX ChDs (CBX8 ChD/CBX8 ChD Y39F/CBX2 ChD) to a fluoresceine-labelled probe as previously reported ^1. Fluorescence displacement assays were performed in black 384-well plates with optical bottoms. Buffer used in FP assays consists of 100 mM Na2HPO4, 150 mM NaCl, 0.02% Tween 20. […] Two-fold dilutions of covalent inhibitors were used, starting with 100 µM as highest peptide concentration to 0.049 µM as the lowest. Four replicates were tested at each concentration. Fluorescence anisotropy was read at different time points. Raw data were analyzed using GraphPad Prism 7 following a “one site-Fit logIC50” competition model with any outliers (95 % confidence interval) being excluded.
Time-dependent fluorescence displacement assay Fluorescence polarization (FP) was measured by titration of CBX ChDs (CBX8 ChD/CBX8 ChD Y39F/CBX2 ChD) to a fluorescein-labelled probe as previously reported.^8 Fluorescence displacement assays were performed in black 384-well plates with optical bottoms. Buffer used in FP assays consists of 100 mM Na2HPO4, 150 mM NaCl, 0.02% Tween 20. […] Fluorescence anisotropy was read at different time points. […] Raw data were analyzed using GraphPad Prism 7 following a “one site-Fit logIC50” competition model with any outliers (95 % confidence interval) being excluded.

[2] = Stability in bovine serum-containing cell media (LC/MS); assay type: in vitro ADME; settings: 20 µM, DMEM with 15% FBS, 24 h, 37 °C
Method: To be suitable for chemical probe and therapeutic applications, the warhead should show good stability. In general, we found the iminolactam warheads to be quite stable. Compound 1 was stable as a solid at room temperature for over 3 months. […] After 24‐h in aqueous buffer, compounds were treated with sodium cyanoborohydride. […] The synthetic strategy of in situ formation of imines by periodate treatment was pursued to avoid concerns of warhead reactivity with the ligand itself to either the peptide backbone or the phenoxyphenyl aryl group. This appears to have been unnecessary, at least for the iminolactam warhead. […] The more reactive ester imine may be forming semi‐stable cyclized products with the amide backbone, which have been observed previously with peptide aldehydes.^[ [51], [52] ^] Due to these issues, we selected compound P1b for further characterization.
Figure S17. Stability of cyclic imine inhibitors to serum-containing cell culture media. […] The protein fraction was then precipitated with addition of 2 volumes of 1:1 EtOH:acetonitrile and overnight incubation at -20 °C. Samples were centrifuged 16,000 g for 30 minutes. Supernatants were filtered through a 0.5 micro spin filter and evaporated with a speed vacuum. The compounds were resuspended in PBS and analzyed by LC/MS. […] Overlaid spectra of UV at 215 nm are shown and are representative of 3 replicates.

CBX8 Y39F = molecular target: T2, CBX8 Y39F (Homo sapiens, UniProt Q9HC52, Y39F); assay: Labeling of CBX8 Y39F mutant (gel shift, LC/MS); assay type: binding; settings: gel shift and LC/MS, 10 µM each, 37 °C
T2 construct: 6His (N); TEV site (ENLYFQG), read by me from the printed insert DNA (N); host or cells: E. coli (BL21 CodonPlus RIL or Rosetta 2), pET-28a(+)
T2 sequence (Q9HC52 11-69 Y39F limits assumed): T1 sequence (Q9HC52 11-69 Y39F limits assumed)
Method: as §1
We confirmed protein labeling through a gel shift assay on Tris‐Tricine SDS‐PAGE (Figure 5b). […] To validate labeling of the targeted tyrosine residue (Y39), this amino acid was mutated to phenylalanine. […] We additionally confirmed the labeling site as Y39 by trypsin digest and LC‐MS/MS analysis (Figure S9B).
For P2, 10 µM purified CBX ChD was incubated with P2 (10 µM) in PBS buffer (pH 7) at 37 °C or R.T. for 1.5 hours, as well as 12 hours overnight. Samples were precipitated using MeOH and CHCl3 at the volume ratio of MeOH:CHCl3:sample=3:0.5:1, washed twice using cold MeOH, and air dried. Dried protein pellets were resuspended in aqueous buffer (0.1% formic acid, 300 mM ammonium acetate), and protein labeling were characterized and quantitated by ESI LC-MS.

SMILES: CC[C@H](C)[C@H](NC(=O)[C@@H](NC(=O)c1ccc(Oc2ccccc2)cc1)C1CCCC1)C(=O)N[C@@H](CCCCN(CC)CCCCCCN1CCN=CC1=O)C(=O)N[C@@H](CO)C(N)=O [P1b]
- reduction of HOXA9 gene expression (in words) [1]: most effective at reducing HOXA9 gene expression
- change in IC50 upon extended incubation (CBX8 ChD Y39F; CBX8 Y39F mutant): no change in IC50
- IC50 (CBX8 ChD Y39F; read-out: IC50 at time 0): 12 µM
- IC50 (CBX8 ChD Y39F; IC50 at 20 h): 11 µM
- stability in bovine serum‐containing cell media [2]: no degradation or loss to the protein fraction; also recorded: minimal loss of compounds to the precipitated protein fraction or degradation
- labeling of mutant CBX8 Y39F (CBX8 Y39F): fails to label
